Measured values published in publication PMC6581936, “Impact of Intracellular Concentrations on Metabolic Drug-Drug Interaction Studies” (The AAPS Journal, 2019).
Several values for one entry are separate records, joined by “and”; a condition that tells them apart may be missing. Equal entries are not always repeated. Where two headings read alike, the source gives them in different places.

How the values were obtained:
[1] = Kp and mass balance in HH in presence and absence of CYP inhibitor ABT; assay type: in vitro ADME, human; conditions: for mass balance: hepatocyte experiments, without ABT
Protocol: S 4 Kp in presence of metabolic inhibitor ABT
A batch of HH derived from a single donor and a pooled batch were each used to measure Kp at 45
minutes in presence and absence of the CYP inhibitor ABT.[1]
Time curves over 45 minutes were established in plated HH. […]

[2] = Intracellular unbound drug accumulation ratio (Kpuu) in suspended HH; assay type: in vitro ADME; conditions: human, human hepatocytes, pH partitioning theory, read-out: calculated cytosolic Kpuu (or Fcyto)
[3] = Fraction unbound in the cell (fu,cell), homogenization method/equilibrium dialysis; assay type: in vitro ADME, human; conditions: HH homogenate; for fraction unbound at 4 h, 0.5 μM / fraction unbound at 0.5 μM: human, human hepatocyte cell homogenate
[4] = Fraction unbound to microsomes (fu,mic), equilibrium dialysis, HLM 0.2 mg/mL; conditions: both, human
[5] = set-up: method as in Brown et al, DMD, 2010; conditions: rat hepatocytes; ref Brown et al, DMD, 2010; cited from earlier work
CYP3A4 [6] = tested on: CYP3A4; set-up: method as in earlier work; conditions: RH; MDZ/1'-OH; ref [2] Brown et al., Drug Metab Dispos 2010; read-out: Ki (Ki,app); cited from earlier work
[7] = Intracellular unbound drug accumulation ratio (Kpuu) in suspended HH; assay type: in vitro ADME, human; conditions: for Kpuu / Kp uu: suspended HH; for Kpuu: Kp x fu,cell, reference compounds; for Kp uu: human, suspended human hepatocytes
Protocol: Kpuu was determined as previously described ([7],[18]) using Eq. (1):
1 Kpuu=Kp∙fu,cell/fu,medium where Kp is the steady-state cellular uptake, and fu,cell the fraction of unbound compound in the cell, determined as described below. The fraction unbound of the compound in the medium (fu,medium) was equal to 1 as no serum proteins or other drug binding components were added to the incubation media.

[8] = set-up: method as in Brown et al., Drug Metab Dispos 2010; conditions: rat liver microsomes; ref Brown et al., Drug Metab Dispos 2010; cited from earlier work
[9] = Steady-state cellular uptake (Kp) in suspended HH; assay type: in vitro ADME; conditions: human, suspended human hepatocytes; for Kp at 5 min, 0.5 μM: RO compounds, parameters matched to the IC50 assay
Protocol: The Kp in suspended HH was measured similarly to previous reports with some modifications ([7],[18]). Briefly, cells were rinsed twice with […] 10 mM HEPES. One hundred microliters of cell suspension (5 × 10^6 cells/mL) was added to a conical 96-well plate, and 100 μL of 1 μM drug solutions in Hank’s buffered salt solution (HBSS) buffered with 10 mM HEPES was added (resulting in a 0.5 μM final concentration). All incubations were performed in triplicates on up to three independent occasions. Full-time curves were established at 1, 3, 7.5, 15, 30, and 45 min to determine Kp at equilibrium. For single time point measurements, the incubation time was matched to the CYP inhibition assays. A sample of the medium was removed after centrifugation in a pre-cooled centrifuge at 4°C (100×g, 5 min), and ten-fold diluted with a mixture of acetonitrile and water (60:40) containing the internal standard for determination of Cmedium. The remaining supernatant was removed by aspiration and cells were washed twice with ice-cold buffer. The intracellular compound was extracted using the acetonitrile to water to internal standard mixture for determination of the amount of drug in the cells (Acell). Protein content (Pcell) was quantified using the BCA assay in representative wells to establish the cellular volume (Vcell), assuming 6.5 μL/mg protein ([23]). Finally, Kp was calculated using Eq. (2)2 Kp=Acell/Vcell∙Pcell/Cmedium

[10] = set-up: method as in Brown et al, DMD, 2010; conditions: rat; calculated from Kilford et al. (2008); ref Brown et al, DMD, 2010; cited from earlier work
[11] = Kpuu in rat hepatocytes derived from literature Kp; assay type: in vitro ADME; conditions: literature rat Kp x experimental (human) fu,cell
CYP3A4 [12] = conditions: read-out: Ki (Ki,app); RLM; MDZ/1'-OH; ref [2] Brown et al., Drug Metab Dispos 2010; cited from earlier work
CYP1A2 [13] = biological target: T1, CYP1A2 (Homo sapiens, UniProt P05177); test: CYP1A2 inhibition in suspended HH; assay type: cell-based; conditions: TCR/1'-OH, source [3] In house
T1 sequence (P05177 whole entry): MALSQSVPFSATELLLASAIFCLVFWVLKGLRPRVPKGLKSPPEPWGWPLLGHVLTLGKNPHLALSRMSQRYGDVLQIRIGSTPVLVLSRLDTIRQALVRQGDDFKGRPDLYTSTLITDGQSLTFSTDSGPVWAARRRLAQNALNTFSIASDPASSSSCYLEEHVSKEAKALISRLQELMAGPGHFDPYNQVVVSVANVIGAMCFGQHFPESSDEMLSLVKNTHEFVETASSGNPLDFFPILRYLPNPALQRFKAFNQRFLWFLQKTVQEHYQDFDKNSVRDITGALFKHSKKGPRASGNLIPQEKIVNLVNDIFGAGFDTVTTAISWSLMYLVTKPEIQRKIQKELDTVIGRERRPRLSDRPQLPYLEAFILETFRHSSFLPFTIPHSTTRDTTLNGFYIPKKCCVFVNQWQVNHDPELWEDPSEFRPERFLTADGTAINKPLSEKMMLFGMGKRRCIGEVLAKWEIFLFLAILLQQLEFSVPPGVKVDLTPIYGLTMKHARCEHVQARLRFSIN
Protocol: (§1) For HH, 50 μL of a suspension of cryopreserved HH (3 × 10^6 cells/mL) were added to a 96-well round bottom plate and pre-incubated for 20 min in Williams E medium (without FBS). Fifty microliters of a × 3 concentrated test compound-solution and 50 μL of × 3 concentrated substrate (diclofenac for CYP2C9, midazolam for CYP3A4 and tacrine for CYP1A2) were added and the plate was incubated on a shaker at 37°C, 5% CO2, and 900 rpm. Incubations were stopped after 5 min by transferring 100 μL of the suspension to a fresh plate and adding 100 μL of acetonitrile containing the internal standard and then analyzed as above.

CYP1A2 [14] = tested on: CYP1A2; set-up: method as in earlier work; conditions: RH; TPH/1,3-DMU; ref [2] Brown et al., Drug Metab Dispos 2010; read-out: Ki (Ki,app); cited from earlier work
CYP1A2 [15] = biological target: T1, CYP1A2; test: CYP1A2 inhibition in HLM; assay type: biochemical; conditions: average values from table S1; read-out: IC50,app HLM
CYP1A2 [16] = tested on: CYP1A2; set-up: method as in earlier work; conditions: RLM; TPH/1,3-DMU; ref [2] Brown et al., Drug Metab Dispos 2010; read-out: Ki (Ki,app); cited from earlier work
pKa of RO compounds = assay type: physicochemical; conditions: method not stated
Source text: Table II Properties of the RO Discovery Compound Series and Results in HLM and Suspended HH | column: pKa

Papp of RO compounds = assay type: in vitro ADME; conditions: not told, method not stated
Source text: Table II Properties of the RO Discovery Compound Series and Results in HLM and Suspended HH | column: Papp (× 10^−6 cm/s)

CYP2C9 = CYP2C9 inhibition assay in HLM and HH (diclofenac); assay type: biochemical, human; conditions: diclofenac as substrate
Protocol: After the addition of 20 μL of 10 mM NADPH, the plate was incubated for 5 min. The reaction was stopped by adding 200 μL of acetonitrile containing an internal standard. After centrifugation of 10 min at 6200×g, the concentration of the substrate in the samples was determined by LC-MS (Sciex API4000, see S6 for LC-MS parameters).
as §1

[17] = cited from earlier work
[18] = azole series (itraconazole 24 h dialysis)

Row | Structure (SMILES) | fraction unbound at 4 h, 0.5 μM ([4]; human liver microsomes) | fraction unbound at 4 h, 0.5 μM ([3]; RO compounds) | pKa (pKa of RO compounds) | Papp (Papp of RO compounds) | Kp uu ([7]; RO compounds) | Kp at 5 min, 0.5 μM [9] | further results
1 | CC[C@H]1OC(=O)[C@H](C)[C@@H](O[C@H]2C[C@@](C)(OC)[C@@H](O)[C@H](C)O2)[C@H](C)[C@@H](O[C@@H]2O[C@H](C)C[C@H](N(C)C)[C@H]2O)[C@](C)(OC)C[C@@H](C)C(=O)[C@H](C)[C@@H](O)[C@]1(C)O [Clarithromycin] | […] |  |  |  |  |  | mass balance ([1]; suspended HH): […]; Kp uu [2]: 1.3; fraction unbound at 4 h, 0.5 μM ([3]; 0.5 μM, reference compounds): […]; Kp [5]: 22; Ki (CYP3A4 [6]): […]; Kpuu [7]: […]; Kpuu ([7]; listed as clarithromycin): […]; fu,mic [8]: 0.81; Kp at 0.5 μM ([9]; 0.5 μM, reference compounds): 25.9 ± 2.1; fu,cell [10]: 0.86; Kp uu [11]: 2.27 ± 0.28; Ki (CYP3A4 [12]): […]
2 | CCn1cc(C(=O)O)c(=O)c2cc(F)c(N3CCNCC3)nc21 [Enoxacin] | 0.53 ± 0.13 |  |  |  |  |  | mass balance ([1]; suspended HH): ~ 100%; IC50 (CYP1A2 [13]): 422 ± 93 µM; fraction unbound at 4 h, 0.5 μM ([3]; 0.5 μM, reference compounds): 1; Kp [5]: 20; Ki (CYP1A2 [14]): 120 ± 65 µM; IC50 (CYP1A2 [15]): 2.14 ± 0.37 mM; fu,mic [8]: 0.99; Kp at 0.5 μM ([9]; 0.5 μM, reference compounds): 7.4 ± 1.1; fu,cell [10]: 0.99; Ki (CYP1A2 [16]): 2.8 ± 1.2 mM; Kp uu [11]: 20
3 | CCC(C)n1ncn(-c2ccc(N3CCN(c4ccc(OCC5COC(Cn6cncn6)(c6ccc(Cl)cc6Cl)O5)cc4)CC3)cc2)c1=O (stereo not shown) [Itraconazole, reference compound] |  |  |  |  |  |  | fu,cell [3, 18]: 0.003 ± 0.002; fraction unbound at 0.5 μM ([4]; human liver microsomes): 0.21 ± 0.13; Kp uu ([7]; azole series): 7.5 ± 6.3; Kp at 0.5 μM ([9]; azole series): 2720 ± 1570
4 | CC(=O)N1CCN(c2ccc(OCC3COC(Cn4ccnc4)(c4ccc(Cl)cc4Cl)O3)cc2)CC1 (stereo not shown) [Ketoconazole, reference compound] |  |  |  |  |  |  | fraction unbound at 0.5 μM [3, 18]: 0.004 ± 0.001; fraction unbound at 0.5 μM ([4]; microsomes): 0.32 ± 0.12
5 | Cc1c(O)cccc1C(=O)N[C@@H](CSc1ccccc1)[C@H](O)CN1C[C@H]2CCCC[C@H]2C[C@H]1C(=O)NC(C)(C)C [Nelfinavir] | 0.04 ± 0.02 |  |  |  |  |  | Kp in presence or absence of ABT ([1]; HH, 45 minutes): unaffected; change of mass balance upon addition of ABT ([1]; suspended HH, 45 minutes): approximately doubled; fu,cell ([3]; 0.5 μM, reference compounds): 0.00025 ± 0.00005; fraction unbound at 4 h, 0.5 μM ([3]; 0.5 μM, reference compounds): 0.0002; Kp [5]: 3352; Ki (CYP3A4 [6]): […]; Kpuu with wash buffers at 4 and 37°C, with and without albumin ([7]; 45 minutes, except 4°C without albumin vs 37°C containing albumin): did not differ; fu,mic [8]: 0.022; fu,cell [10]: 0.035; Ki (CYP3A4 [12]): […]
6 | CC[C@@H]([C@H](C)O)n1ncn(-c2ccc(N3CCN(c4ccc(OC[C@@H]5CO[C@@](Cn6cncn6)(c6ccc(F)cc6F)C5)cc4)CC3)cc2)c1=O [Posaconazole, reference compound] |  |  |  |  |  |  | fraction unbound at 0.5 μM [3, 18]: 0.005 ± 0.003; fraction unbound at 0.5 μM ([4]; human liver microsomes): 0.21 ± 0.11; Kp uu ([7]; azole series): 37.6 ± 12.8; Kp at 0.5 μM ([9]; azole series): 6930 ± 1240
7 | Cc1cccc(S(=O)(=O)NC(=O)Nc2cc(Br)cc(N)n2)c1 [RO01] | 0.42 ± 0.06 | 0.0149 ± 0.0003 | 5.41 | 10 ×10⁻⁶ cm/s | 0.357 ± 0.003 | 24 ± 2.2 | difference of IC50,app between HH and HLM (CYP2C9): identical
8 | Cc1cccc2cc(S(=O)(=O)NC(=O)Nc3ncc(Br)s3)sc12 [RO02] | 0.36 ± 0.09 | 0.0013 ± 7e-05 | 3.14 | 2 ×10⁻⁶ cm/s | 0.0613 ± 0.0002 | 47.3 ± 1.1 | 
9 | COCc1oc(S(=O)(=O)NC(=O)Nc2ncc(Br)s2)cc1C [RO03] | 0.41 ± 0.03 | 0.017 ± 0.001 | 2.91 | 9 ×10⁻⁶ cm/s | 0.3 ± 0.08 | 17.9 ± 8.9 | difference of IC50,app between HH and HLM (CYP2C9): identical
10 | COCc1oc(S(=O)(=O)NC(=O)Nc2nc(C)c(Br)s2)cc1C [RO04] | 0.45 ± 0.11 | 0.02 ± 0.01 | 2.8 | 13 ×10⁻⁶ cm/s | 0.46 ± 0.65 | 27.6 ± 26.1 | difference of IC50,app between HH and HLM (CYP2C9): identical
11 | O=C(Nc1ncc(Br)s1)NS(=O)(=O)c1cc2cccc(Cl)c2s1 [RO05] | 0.23 ± 0.02 | 0.0021 ± 0.0003 | 2.76 | 2 ×10⁻⁶ cm/s | 0.039 ± 0.003 | 18.5 ± 4.4 | 
12 | Cn1c(S(=O)(=O)NC(=O)Nc2ncc(Br)s2)cc2ccccc21 [RO06] | 0.36 ± 0.11 | 0.0039 ± 0.0003 | 2.8 | 3 ×10⁻⁶ cm/s | 0.24 ± 0.1 | 61.6 ± 38.6 | 
13 | COc1cc(C)c(-c2sc(S(=O)(=O)NC(=O)Nc3ncc(Br)s3)cc2C)cn1 [RO07] | 0.84 ± 0.06 | 0.00392 ± 3e-05 | 3.17 | 4 ×10⁻⁶ cm/s | 0.16 ± 0.01 | 41.9 ± 4.8 | 
14 | Cc1cccc(S(=O)(=O)NC(=O)Nc2snc(C)c2Br)c1 [RO08] | 0.41 ± 0.09 | 0.009 ± 0.004 | 2.66 | 22 ×10⁻⁶ cm/s | 0.21 ± 0.05 | 22.2 ± 4.3 | 
15 | COCCc1sc(S(=O)(=O)NC(=O)Nc2snc(C)c2Br)cc1C [RO09] | 0.97 ± 0.41 | 0.0075 ± 0.0006 | 2.49 | 2 ×10⁻⁶ cm/s | 0.088 ± 0.003 | 11.7 ± 2 | difference of IC50,app between HH and HLM (CYP2C9): 12 fold
17 | CO[C@H]1/C=C/O[C@@]2(C)Oc3c(C)c(O)c4c(O)c(c(/C=N/N5CCN(C)CC5)c(O)c4c3C2=O)NC(=O)/C(C)=C\C=C\[C@H](C)[C@H](O)[C@@H](C)[C@@H](O)[C@@H](C)[C@H](OC(C)=O)[C@@H]1C [rifampicin] |  |  |  |  |  |  | empirical hepatic uptake scalar [17]: 16.9
